Source: PubChem BioAssay AID179 (DTP/NCI, 2004)
Values joined by “and” are separate entries in the source; they are usually repeats but may differ in a detail not shown here. Equal values may be shown once. Active and inactive are the calls of the source.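 Rule for the calls: active = compounds giving half or more protection of infected cells from virus-caused growth loss, again on retest; inactive = the rest.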 Where a SMILES comes first, the peptide text is derived from it. The star is where a group is joined. Boc = CC(C)(C)OC(=O)*; OBn = c1ccc(CO*)cc1; Bn = c1ccc(C*)cc1

Tested on: CEM cells HIV-1 protection, formazan growth assay
Test: NCI AIDS Antiviral Assay
Conditions: for IC50: measured here: growth of uninfected CEM cells
How it was run: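 Soluble formazan readout of cell growth; CEM cells ± HIV-1; 5 drug concs. ≥50% protection → retest; ≥50% again = moderately active; reproducible 100% = confirmed active.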

## N#C/C(=C\c1cc(O)c(O)c(O)c1)C(=O)NCCCCCNC(=O)/C(C#N)=C/c1cc(O)c(O)c(O)c1
  EC50: > 200 µM
  IC50: 38 µM

## CCOC(=O)CNC(=O)C(C)NC(=O)C(NC(=O)CC(c1ncc[nH]1)c1ncc[nH]1)C(C)CC (stereo not given)
  EC50: > 100 µM
  IC50: > 100 µM

## COC(=O)c1ccc(NCC2=CC(=O)c3ccccc3C2=O)cc1
  EC50: > 200 µM
  IC50: 2.09 µM

## O=C(CCC1C(=O)NC(=S)NC1=O)c1ccc2ccccc2c1
  EC50: > 110 µM
  IC50: > 110 µM

## C=C(C[N+](C)(C)C)N/N=C/c1oc(-c2ccc(OC)c(OC)c2)c(-c2ccc(OC)c(OC)c2)c1[N+](=O)[O-]
  EC50: > 12.9 µM
  IC50: > 12.9 µM

## O=C(O)c1[nH][nH]c(=O)c1N=Nc1ccc(/C=C/c2ccc(N=Nc3c(C(=O)O)[nH][nH]c3=O)cc2S(=O)(=O)O)c(S(=O)(=O)O)c1
  EC50: > 200 µM
  IC50: > 200 µM

## N=C(N)c1ccc(NC(=O)c2ccc(C(=O)Nc3ccc(C(=N)N)cc3)c(N)c2)cc1
  EC50: 53.7 µM
  IC50: > 200 µM

## Nc1nc2c(ncn2C(CCO)SCCO)c(=O)[nH]1 (stereo not given)
  EC50: > 871 µM
  IC50: > 871 µM

## CCCN1CN(C(C(=O)N[C@@H]2C(=O)N3C(C(=O)O)=C(C)CSC23)c2ccc(O)cc2)CSC1=S (stereo not given in full)
  EC50: > 347 µM
  IC50: 195 µM

## CCCCCCCCCCCCCCCCCC1=Nc2cc(C)c(C)cc2NC(=O)C1
  EC50: > 100 µM
  IC50: > 100 µM

## COc1cc(OC)c(C(=O)[O][Sn]([c]2ccccc2)([c]2ccccc2)[c]2ccccc2)cc1OC
  EC50: > 200 µM
  IC50: 0.0631 µM

## COc1cccc2c(=O)c3c(O)c4cc(N(C)C)ccc4c(OC(C)=O)c3oc12
  EC50: > 200 µM
  IC50: 8.91 µM

## CN(NC(=O)c1ccc(Cl)cc1)C1=NCCCCN1
  EC50: > 200 µM
  IC50: > 200 µM

## CC(CO)CCNc1ncnc2c1ncn2CCC#N (stereo not given)
  EC50: > 200 µM
  IC50: > 200 µM

## CS(=O)(=O)c1nc2ccc(N3C(=O)c4ccccc4C3=O)cc2s1
  outcome: inactive

## O=C(N=Nc1ccccc1Br)NNc1ccccc1Br
  EC50: > 200 µM
  IC50: > 100 µM

## O=c1cc(O)c2ccccc2o1
  EC50: > 1550 µM
  IC50: 617 µM

## CC[C@]1(Cc2ccc(OC)c(OC)c2)C2CC(C(=O)OC)ON2O[C@H](OCc2ccccc2)[C@@H]1OC(C)=O (stereo not given in full)
  EC50: > 200 µM
  IC50: 102 µM

## COc1cc(Br)c(C=Nc2cccc3ccc(OS(=O)(=O)c4ccc([N+](=O)[O-])cc4)cc23)cc1OC
  EC50: > 17.4 µM
  IC50: > 17.4 µM

## CN(C)CCCCC1CCN(CC(=O)N2c3ccccc3NC(=O)c3ccccc32)CC1
  EC50: > 302 µM
  IC50: 155 µM

## CCOC(=O)CC[C@H](NC(=O)N[C@H](C)c1ccccc1)C(=O)OCC
  EC50: > 200 µM
  IC50: 39.8 µM

## COC(=O)c1ccc2c(c1)CC1(C2)Cc2cc3c(c(C(=O)OC)c2C1)CCCC3 (stereo not given)
  EC50: > 200 µM
  IC50: > 200 µM

## CC(C)CC(NC(=O)C(Cc1ccccc1)NC(=O)C(COCc1ccccc1)NC(=O)OC(C)(C)C)C(=O)OCc1ccccc1 (stereo not drawn) (Boc-Ser(Bn)-Phe-Leu-OBn; configuration not given here)
  EC50: > 200 µM
  IC50: 13.2 µM

## COc1cc2cc(OC(C)=O)c3cc4c(cc3c2c(OC)c1OC)OCO4
  EC50: > 676 µM
  IC50: > 676 µM

## CC(C)(C)C(=O)/C=C/c1ccccc1F
  EC50: > 49 µM
  IC50: > 49 µM

## COc1ccc(C2=C(c3ccccc3)C(=O)C(c3ccccc3)=C2c2ccccc2)cc1
  outcome: inactive

## CC12CCC3(OCCO3)C(OC(=O)c3ccccc3)=C1CCC21OCCO1 (stereo not given)
  outcome: inactive

## Cc1nc(N2N=C(c3ccc(Cl)cc3)CCC2=O)sc1[N+](=O)[O-]
  EC50: > 74.1 µM
  IC50: 32.4 µM

## COC(=O)c1ccccc1C1CN=NC12Cc1cc(C)cc(C)c1C2=O (stereo not given)
  outcome: inactive

## C1CNCCSCCCSCCNC1
  EC50: > 200 µM
  IC50: > 200 µM

## Cc1cc2c(=O)cc(-c3ccc(O)cc3)oc2c(C(=O)O)c1C
  outcome: inactive

## c1c[nH]c(-c2ccc(-c3ccc[nH]3)c3nsnc23)c1
  EC50: > 200 µM
  IC50: > 200 µM

## Cc1cccc(N2C(=O)C3c4[nH]c5ccccc5c4C4CCC(C(C)(C)C)CC4C3C2=O)c1 (stereo not given)
  EC50: > 200 µM
  IC50: 38.9 µM

## O=[N+]([O-])c1c(C=Nc2ccccc2)oc(-c2c(O)ccc3ccccc23)c1-c1c(O)ccc2ccccc12
  EC50: > 200 µM
  IC50: 31.6 µM

## COC(=O)c1ncn(C(C(=O)OC)C(=O)OC)c1O
  EC50: > 200 µM
  IC50: > 200 µM

## N#CNC1=NCCC(=O)N1CCc1c[nH]c2ccccc12
  EC50: 70.8 µM
  IC50: > 200 µM

## O=C(Nc1cccc([N+](=O)[O-])c1)c1n[nH]n(-c2cccc([N+](=O)[O-])c2)c1=O
  EC50: > 200 µM
  IC50: > 200 µM

## C[P@](=O)(CCSc1ccccc1)c1ccccc1
  EC50: > 468 µM
  IC50: > 468 µM

## CC(C)OC(=O)C1(C(C)C)CCc2ccc(C(=O)CCC(=O)O)cc21 (stereo not given)
  EC50: > 200 µM
  IC50: 178 µM

## CN(C)CCN(C)C(=O)C1CCCN1C(=O)OCc1ccccc1 (stereo not given)
  EC50: > 759 µM
  IC50: 46.8 µM

## CN(C)C(=N)c1ccccc1
  outcome: inactive

## Nc1nc(Cl)cc(OCC2(CO)CCC2)n1
  EC50: > 200 µM
  IC50: 135 µM

## Cc1cc2c(nn1)-c1ccccc1C2=O
  EC50: > 200 µM
  IC50: 105 µM

## COC1N(C2CC(N=[N+]=[N-])C(CO)O2)C(=O)NC(=O)C1(C)Br (stereo not given)
  EC50: 0.00479 µM and 0.00263 µM and 0.0049 µM
  IC50: 40.7 µM and 38.9 µM and 16.2 µM

## Nc1ccc(C(=O)N2CCC[C@H]2CO)c(N)c1
  EC50: > 200 µM
  IC50: > 200 µM

## c1cncc(C2c3[nH]c4ccccc4c3CCN2CCN2CCCCC2)c1 (stereo not given)
  EC50: > 3.98 µM
  IC50: > 3.98 µM

## Nc1cn(Cc2ccccc2)c2nc(/C=C3/C=CC=CC3=O)c(O)n12
  EC50: > 200 µM
  IC50: > 200 µM

## COC1CC2(C[Si](C)(C)C)OC(=O)OC2C(C)O1 (stereo not given)
  outcome: inactive

## C=CC[C@@]12CC(C=CC13OCCO3)OC(O)[C@@H]2C (stereo not given in full)
  EC50: > 200 µM
  IC50: 145 µM

## COC(=O)/C=C1\C(=O)N(C(C)=O)c2ccccc21
  EC50: > 200 µM
  IC50: 3.31 µM

## O=C1c2ccccc2C(=O)c2c1ccc1c3ccccc3n(Cc3ccccc3)c21
  outcome: inactive

## CCOC(=O)C(=O)Nc1c(C)cccc1C
  EC50: > 1120 µM
  IC50: > 1120 µM

## CCOc1ccc(NC(=O)C2=C(C)NC(C)=C(C(=O)Nc3ccc(OCC)cc3)C2c2ccccc2)cc1
  EC50: > 36.3 µM
  IC50: > 36.3 µM

## COC(=O)C1=C(C)NC2=C(C(=O)CCC2)C1CCS(C)=O (stereo not given)
  EC50: > 200 µM
  IC50: > 200 µM

## CNNC1=NS(=O)(=O)c2cc(C)c(Cl)cc2S1
  EC50: > 200 µM
  IC50: > 200 µM

## COC1C(C)OC(OC2CC(C)(O)Cc3cc4c(c(O)c32)C(=O)c2c(O)cc3c(c2C4=O)OC2OC3(C)C(O)C(N(C)C)C2O)C(OC)C1(C)OC (stereo not given)
  outcome: inactive

## COc1ccc(-c2oc(/C=N/NC(N)=S)c([N+](=O)[O-])c2-c2ccc(OC)c(OC)c2)cc1OC
  EC50: > 20.4 µM
  IC50: > 20.4 µM

## Cc1ccc(NC(=O)CCc2cc(C(C)(C)C)nc(NC#N)n2)cc1C
  outcome: inactive

## Clc1cccc(NC2=NCCN=C(Nc3cccc(Cl)c3Cl)SS2)c1Cl
  EC50: > 200 µM
  IC50: 21.4 µM

## O=C(O)CCCCCCC[C@@H]1S[C@H]1CCCCCCO
  outcome: inactive

## OC12c3ccccc3C1CCCCCCCCCC21OCCO1 (stereo not given)
  outcome: inactive

## c1ccc(OCC[P+](c2ccccc2)(c2ccccc2)c2ccccc2)cc1
  EC50: > 200 µM
  IC50: 0.501 µM

## C=C1CC[C@@H]2C(C)(C)C(O)CCC2(C)C1COc1ccc2ccc(=O)oc2c1 (stereo not given in full)
  EC50: > 67.6 µM
  IC50: 36.3 µM

## Cn1c(=O)n2n(c1=O)C1C=CC2C2C=C(c3ccccc3)C21 (stereo not given)
  outcome: inactive

## C[N+](C)(C)CC1CCC/C1=N/O (stereo not given)
  EC50: > 832 µM
  IC50: > 832 µM

## Cc1c(N=Nc2ccccc2)c(-c2ccccc2)n(C2OC(CO)C(O)C(O)C2O)c(=S)c1C#N (stereo not given)
  EC50: > 200 µM
  IC50: 15.1 µM

## CC1(C(=O)Nc2ccc3cc4ccccc4cc3c2)CC2(C)CC(C)(C1)C(O)NC2=O (stereo not given)
  outcome: inactive

## C=CC(=O)N1C/C(=C\c2ccc(OC)cc2)C(=O)/C(=C/c2ccc(OC)cc2)C1
  EC50: 0.2 µM
  IC50: 2.4 µM

## COC(=O)C(=C\Sc1ccccc1)/C=C/C(=O)OC(C)(C)C
  outcome: inactive

## COC(=O)C12CC3CC(C1)CC(C(=O)OC)(C3)C2
  EC50: > 513 µM
  IC50: 363 µM

## CC1(C)OC2C(COCc3ccccc3)=CC(n3ccc(=O)[nH]c3=O)C2O1 (stereo not given)
  EC50: > 200 µM
  IC50: > 200 µM

## O=C(OCc1ccccc1)c1ccccc1-c1c2ccc(=O)cc-2oc2cc(OCc3ccccc3)ccc12
  EC50: > 5.13 µM
  IC50: > 5.13 µM

## COc1ccc2cc(C(=O)NCCCNC(=O)c3ccc4c(OC)c(OC)ccc4c3)ccc2c1OC
  EC50: > 200 µM
  IC50: > 200 µM

## COc1ccc(-c2sc(/N=C/c3cc(Br)cc(Br)c3O)c(C#N)c2C)cc1OC
  outcome: inactive

## c1ccc2c(c1)c1c(n2CCOCCN2CCCCC2)CCCC1
  EC50: > 200 µM
  IC50: 8.32 µM

## O=C(O)c1ccc2c(n1)-c1nc3nc4c(cc3cc1CC2)CCc1ccc(C(=O)O)nc1-4
  EC50: > 200 µM
  IC50: 21.9 µM

## O=S1c2ccccc2-c2ccccc21
  EC50: > 447 µM
  IC50: > 447 µM

## O=C1Nc2ccccc2N=CC1NC(=O)C(c1ccccc1)c1ccccc1 (stereo not given)
  EC50: > 257 µM
  IC50: 224 µM

## CN(C)c1ccc(/C=C/c2ccnc3c2ccc2ccccc23)cc1
  EC50: > 22.4 µM
  IC50: 13.5 µM

## O=C(O)c1sccc1-c1cccc2ccccc12
  EC50: > 200 µM
  IC50: 83.2 µM

## Cc1c(C)c(C)c(-n2c(=O)n(C)c(=O)n2C(C)(C)C)c(C)c1C
  EC50: > 200 µM
  IC50: 3.31 µM

## CCOC(=O)CC(=O)ON(C)C(C)=O
  EC50: > 251 µM
  IC50: > 251 µM

## Cc1nc(SCC(=O)Nc2ccccc2)c2sc(=S)n(-c3ccccc3)c2n1
  EC50: > 501 µM
  IC50: > 501 µM

## c1ccc(N2N=NC3CCCC32)cc1 (stereo not given)
  EC50: > 200 µM
  IC50: 95.5 µM

## COc1c(C)c2c(c3c1c(=O)c1ccccc1n3C)C=CC(C)(C)O2
  EC50: > 15.5 µM
  IC50: 11 µM

## CO/C(=N\N=C\c1ccc(OC)cc1OC)c1ccncc1
  EC50: > 229 µM
  IC50: 105 µM

## COc1cc2c(cc1OC)C1c3ccccc3CCCN1CC2 (stereo not given)
  EC50: > 200 µM
  IC50: 123 µM

## O=c1onc2n1-c1cc(Cl)ccc1C(=S)N1CSCC21 (stereo not given)
  EC50: > 200 µM
  IC50: 105 µM
